Source: ChEMBL document CHEMBL1201862, “PubChem BioAssay data set” (2004)
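Where inhibition never reached the appropriate level, the endpoint shown equals the highest concentration tested. Otherwise, values were interpolated linearly from a five-concentration, 48-hour dose response in 96-well plates. GI50 marks 50% less growth.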 Activity calls are given as the source filed them. No stated cut-off is given here; in the data, active = GI50 up to about 1.1 µM and inactive = higher.

Experiments:
Test in all cases: NCI anticancer screen, dose series, 48 h
[1] = test system: LXFL 529
[2] = test system: NCI-H460
[3] = test system: UO-31
[4] = test system: A549
[5] = test system: HT-29
[6] = test system: EKVX
[7] = test system: UACC-62
[8] = test system: XF498
[9] = test system: HOP-62
[10] = test system: A498
[11] = test system: SN12C
[12] = test system: OVCAR-3
[13] = test system: HCT-116
[14] = test system: K562
[15] = test system: SF-295
[16] = test system: SK-MEL-5
[17] = test system: RXF 393
[18] = test system: MCF7
[19] = test system: Hs-578T
[20] = test system: MDA-N

Compound	GI50 [1]	GI50 [2]	GI50 [3]	GI50 [4]	GI50 [5]	GI50 [6]	GI50 [7]	GI50 [8]	GI50 [9]	GI50 [10]	GI50 [11]	GI50 [12]	GI50 [13]	GI50 [14]	GI50 [15]	GI50 [16]	GI50 [17]	GI50 [18]	GI50 [19]	GI50 [20]
CCC1(OC(C)=O)C(=O)OCc2c1cc1n(c2=O)Cc2cc3ccccc3nc2-1 (centres undefined)	15 µM (inactive)	0.262 µM (active)	1 µM (active)	1.16 µM (inactive)	3.63 µM (inactive)	12.8 µM (inactive)	0.251 µM (active)	17.9 µM (inactive)	0.316 µM (active)	2.55 µM (inactive)	0.638 µM (active)	10.7 µM (inactive)	2.03 µM (inactive)	3.1 µM (inactive)	0.778 µM (active)	1.23 µM (inactive)	2.64 µM (inactive)			
CC(=O)OC[C@@H](COC(=O)/C=C/c1ccc(O)cc1)OC1OC(CO)C(O)C(O)C1O (some centres undefined)	> 100 µM (inactive)	> 100 µM (inactive)	> 100 µM (inactive)	> 100 µM (inactive)	> 100 µM (inactive)	> 100 µM (inactive)	> 100 µM (inactive)	> 100 µM (inactive)	> 100 µM (inactive)	> 100 µM (inactive)	> 100 µM (inactive)	> 100 µM (inactive)	> 100 µM (inactive)	> 100 µM (inactive)	> 100 µM (inactive)	> 100 µM (inactive)	> 100 µM (inactive)			
COC(=O)C(C(=O)C(=O)Nc1ccccc1C)c1nc2ccc([N+](=O)[O-])cc2nc1O (centres undefined)	> 100 µM (inactive)	> 100 µM (inactive)	> 100 µM (inactive)	> 100 µM (inactive)	> 100 µM (inactive)	> 100 µM (inactive)	> 100 µM (inactive)	> 100 µM (inactive)	> 100 µM (inactive)	> 100 µM (inactive)	> 100 µM (inactive)	> 100 µM (inactive)	> 100 µM (inactive)	> 100 µM (inactive)	> 100 µM (inactive)	> 100 µM (inactive)	> 100 µM (inactive)			
O=C(NC(=O)c1ccccc1[N+](=O)[O-])Nc1ccc(Oc2ncc(Cl)cn2)c([N+](=O)[O-])c1	0.217 µM (active)	0.198 µM (active)	0.573 µM (active)	0.385 µM (active)	0.147 µM (active)	2.93 µM (inactive)	0.0834 µM (active)	0.818 µM (active)	0.303 µM (active)	0.301 µM (active)	0.7 µM (active)	0.0644 µM (active)	0.175 µM (active)	0.0339 µM (active)	0.157 µM (active)	0.0773 µM (active)	0.373 µM (active)	0.12 µM (active)	0.202 µM (active)	0.0227 µM (active)
c1ccc([S+](c2ccccc2)c2ccc(Sc3ccc([S+](c4ccccc4)c4ccccc4)cc3)cc2)cc1	18 µM (inactive)	29.6 µM (inactive)	60 µM (inactive)	9.79 µM (inactive)	18.2 µM (inactive)	73.6 µM (inactive)	24 µM (inactive)	11.4 µM (inactive)	39.7 µM (inactive)	44.4 µM (inactive)	17.9 µM (inactive)	10.2 µM (inactive)	21.8 µM (inactive)	1.17 µM (inactive)	25.8 µM (inactive)	5.81 µM (inactive)	19.7 µM (inactive)			
CCOC(=O)C(C)(C)Oc1ccc2c(C)c(-c3ccc(Cl)cc3)c(=O)oc2c1	34.1 µM (inactive)	> 100 µM (inactive)	55.5 µM (inactive)	37.6 µM (inactive)	20.7 µM (inactive)	70.3 µM (inactive)	32.5 µM (inactive)	20.3 µM (inactive)	89.1 µM (inactive)	> 100 µM (inactive)	> 100 µM (inactive)	85.1 µM (inactive)	43 µM (inactive)	14.7 µM (inactive)	79.6 µM (inactive)	13.4 µM (inactive)	> 100 µM (inactive)			
O=c1[nH]c2ccccc2nc1CBr	1.12 µM (active)	11.4 µM (inactive)	3.87 µM (inactive)	14.4 µM (inactive)	6.24 µM (inactive)	3.3 µM (inactive)	8.11 µM (inactive)	1.9 µM (inactive)	21.3 µM (inactive)	21.8 µM (inactive)	9.38 µM (inactive)	1.57 µM (inactive)	8.39 µM (inactive)	2.24 µM (inactive)	12.6 µM (inactive)	10.8 µM (inactive)	1.82 µM (inactive)		12.1 µM (inactive)	12 µM (inactive)
